Where “and” joins values, the source holds several entries; their conditions need not be identical. Equal values may be shown once. Entries after “also recorded” stand apart in the source; their conditions may differ.
Legend:
[1] = tested on: ornithine decarboxylase (ODC); assay: ODC activity in human melanoma xenografts in-vivo
[2] = BENSPM (analog) pools in tumor and host tissue; assay type: in vivo, mouse; set-up: BENSPM pool (tissue content): unit not given here
[3] = tested on: PANUT-3 human melanoma xenografts; assay: antitumor response against PANUT-3 human melanoma xenografts in mice; assay type: in vivo
Protocol: (§1) […] where 1 represents length; w--width; and h--height. Tumor sizes were monitored 2 times/week until the median volume (V=0.4(a^2 ×b) where a is the smaller of the two perpendicular tumor diameters). As an indication of drug toxicity, animal weights were also recorded at the time of tumor volume measurement. Statistical analyses were performed on mouse tumor size and weight parameters by using the Mann-Whitney test.
(§2) Tumor growth suppression was measured by plotting the mean tumor volume versus the number of days post-inoculation with polyamine analog (growth curve analyses). Suppression is determined by comparison with the growth of untreated tumors (%T/C). More specifically,: %T/C is (treated tumor volume minus pretreatment volume) divided by (control tumor volume minus pretreatment volume)×100. Typically this is measured either when the control tumor volume reaches 1000 mm^3, or at the last day of treatment.
(§3) Tumor regression is measured as a percentage representing the average percentage of decrease in tumor volume from the largest pretreatment volume value.
(§4) Repression of regrowth is represented as regrowth delay, determined as the number of days following cessation of treatment when median group tumor volume exceeds 200 mm^3 (an arbitrary indication of regrowth which was determined statistically).
(§5) For example, human melanoma cell lines including MALME-3, SH-1, PANUT-3 and LOX were evaluated for the level of SSAT induction and potency of antitumor response following BENSPM treatment (80 mg/kg 3×/day×6 days) using the methodology previously described in this embodiment. […] The baseline of SSAT activity in the control mice (2 examined of 7 mice) ranged from 50 to 90 pmol/min/mg. […] Note that following BENSPM treatment (as discussed above in the context of Tables 4 and 5), suppression of tumor growth of PANUT-3, unlike suppression of MALME-3 growth, lasted for only about 12 days. Further, the levels of SSAT in PANUT-3 at two weeks post-treatment, approached the levels in the control and correlated with the loss of antitumor activity.

[4] = tested on: LOX human melanoma xenografts; assay: antitumor response against LOX human melanoma xenografts in mice; assay type: in vivo
Protocol: as §1, §2, §3, §4
For example, SSAT activity and potency of antitumor response was examined for LOX and MALME-3 melanoma xenografts in mice. Mice developing palpable tumors of a similar size were divided into different treatment groups comprising 7 mice per treatment group, and 7 control mice per treatment group. The treated mice received 40 mg/kg of BENSPM administered every 8 hours for a 5 day period. Melanoma tumor cells comprising the human xenografts were removed from two mice of each group at 16 hours following the final BENSPM injection to evaluate the level of induction of SSAT activity. The antitumor response from polyamine analog therapy was assessed in the five remaining mice from each group by monitoring the tumor volume of the xenografts over days following treatment as compared to untreated xenografts.
as §5

[5] = tested on: HT29 colon adenocarcinoma xenografts; assay: antitumor response against HT29 colon adenocarcinoma xenografts in mice; assay type: in vivo, human
Protocol: as §1, §2, §3, §4
Cells from malignant solid human tumor tissue types, other than melanoma, have also been evaluated for their responsiveness to polyamine analog treatment including clonal cell lines A121 (human ovarian adenocarcinoma),A549 (lung adenocarcinoma), and HT29 colon adenocarcinoma). These cell lines were evaluated for the level of SSAT induction and potency of antitumor response following BENSPM treatment (80 mg/kg 3×/day×6 days) in-vivo using the methodology previously described in this embodiment. Also, dose of BENSPM was compared (80 mg/kg versus 40 mg/kg). The baseline of SSAT activity in the control mice (2 of 7 mice) ranged from 40 to 90 pmol/min/mg. Tumor cells from the human xenografts A121, A549, and HT29 were removed from two mice of each treated group of seven mice containing the respective xenograft at 16 hours following the final BENSPM injection to evaluate the level of induction of SSAT activity. […] The response to the polyamine analog was heterotypic. […] As discussed previously, it is not known whether the heterotypic antitumor response may be due to either the individual properties of the clonal line or the particular solid tumor type.

[6] = tested on: human melanoma xenografts; assay: antitumor response, human melanoma xenografts, dose comparison and general; assay type: in vivo; conditions: MALME-3, SH-1, PANUT-3, LOX
Protocol: The in-vivo antitumor activities of BESPM, BEHSPM, and BENSPM, were compared against various human xenografts in nude athymic mice. Cultured human tumor cells were first passaged several times in female HSD nude athymic mice. Fragments of resultant tumor were implanted into mice via subcutaneous trocar implantation. Mice of different treatment groups were treated with one or more of the three bis-ethyl spermine analogs BESPM, BEHSPM, and BENSPM. Anti-proliferative activity was monitored by antitumor responses including tumor growth suppression, tumor regression, or repression of regrowth.
as §5

[7] = tested on: human tumor xenografts; assay: antitumor efficacy in-vivo (general statement); conditions: compared to other bis-ethyl spermine analogs
[8] = tested on: SH-1 human melanoma cells; assay: growth of SH-1 melanoma cells in-vitro (FIG. 5); assay type: cell-based; conditions: SH-1, 10 μM BESPM, 48 hours
Protocol: (§6) As mentioned previously, cells from malignant solid tumor respond to polyamine analog therapy heterotypically. SSAT induction and antitumor response may vary not only among the solid tumor tissue type, but also with the clonal line of tumor of a particular solid tissue type. However, a correlation between the level of induction of SSAT and the potency of antitumor response has been observed in tumors of a particular solid tissue type. For example, seven human melanoma cell lines were assayed in-vitro for their response, as determined by cell growth and level of SSAT induction, to 10 μM BESPM at 48 hours post-treatment. As summarized in FIG. 5, growth among the cell lines decreases as SSAT induction increases.

[9] = tested on: MALME-3 human melanoma cells; assay: growth of MALME-3 melanoma cells in-vitro (FIG. 5); assay type: cell-based; conditions: MALME-3, 10 μM BESPM, 48 hours
Protocol: as §6

[10] = tested on: cell growth; conditions: in-vitro; cited from earlier work
[11] = tested on: NCI H157 human large cell lung carcinoma cell line; conditions: cited from earlier work
[12] = HT29, BENSPM 80 mg/kg 3x/d × 6d

For `CCNCCCNCCCNCCCNCC` [BENSPM, N^1,N^11 -bis(ethyl)norspermine], the “ODC levels” value ([1]; MALME-3 study) was “ODC and SAMDC levels were not suppressed”, the “ODC levels” value ([1]; PANUT-3 study) was “ODC and SAMDC levels were not suppressed” and the “BENSPM pool (tissue content)” value ([2]; MALME-3 tumor, 40 mg/kg 3x/day 6 days, 16 hrs post-treatment) was 1020/1535. For the same molecule, the “BENSPM pool (tissue content)” value ([2]; MALME-3 tumor, 40 mg/kg, 2 wks post-treatment) was 620/470, the “BENSPM pool (tissue content)” value ([2]; kidney, 40 mg/kg, 2 wks post-treatment) was 90/150 and the “BENSPM pool (tissue content)” value ([2]; kidney, 40 mg/kg, 16 hrs post-treatment) was 860/1705. For the same molecule, the “BENSPM pool (tissue content)” value ([2]; liver, 40 mg/kg, 2 wks post-treatment) was 40/40, the “BENSPM pool (tissue content)” value ([2]; liver, 40 mg/kg, 16 hrs post-treatment) was 1180/1470 and the “metabolite peak of BENSPM” value ([2]; tumor, kidney and liver, 40 mg/kg, 16 hrs post-treatment) was “a peak which was similar in height to the SPM peak”. The “tumor regression, PANUT-3 versus MALME-3” value ([3]; BENSPM 80 mg/kg 3×/day×6 days) was “significantly more tumor regression”, the “% T/C at 1 g” value ([3]; PANUT-3, BENSPM at 80 mg/kg) was 10% and the “Tumor Regression” value ([3]; PANUT-3, BENSPM at 80 mg/kg) was “Major”. For the same molecule, the “Regrowth Delay” value ([3]; PANUT-3, BENSPM at 80 mg/kg, dt 7 days) was 2.7 × dt, the “No Regrowth” value ([3]; PANUT-3, BENSPM at 80 mg/kg, for duration of experiment) was 0/5 and the “duration of suppression of tumor growth” value ([3]; PANUT-3 xenograft, following BENSPM treatment) was “about 12 days”. For the same molecule, the “tumor regression, regrowth delay, lack of regrowth (FIG. 6)” value ([4]; LOX xenograft, 40 mg/kg every 8 hours for 5 days) was “no significant tumor regression, regrowth delay, nor lack of regrowth”, the “% T/C at 1 g” value ([4]; LOX, BENSPM at 80 mg/kg) was 40% and the “Tumor Regression” value ([4]; LOX, BENSPM at 80 mg/kg) was “None”. For the same molecule, the “Regrowth Delay” value ([4]; LOX, BENSPM at 80 mg/kg, dt 5 days) was “None”, the “No Regrowth” value ([4]; LOX, BENSPM at 80 mg/kg, for duration of experiment) was 0/5 and the “% T/C at 1 g” value [5, 12] was 24%. For the same molecule, the “Tumor Regression” value [5, 12] was “no measurable tumor regression and None”, the “Regrowth Delay” value ([5]; HT29, BENSPM 80 mg/kg 3x/d × 6d, dt 3.5 days) was “None” and the “No Regrowth” value ([5]; HT29, BENSPM 80 mg/kg 3x/d × 6d, for duration of experiment) was “two of five mice examined showed no regrowth and 2/5”. For the same molecule, the growth rate ([5]; HT29 xenograft, 80 mg/kg 3×/day×6 days) was “reduced growth rate”, the “antitumor response at 40 mg/kg versus 80 mg/kg” value [6] was “very similar to the response at 80 mg/kg” and the “antitumor efficacy / activity, relative” value [7] was “most potent antitumor efficacy; also recorded: most potent antitumor activity”.
In the case of `CCNCCCNCCCCNCCCNCC` [BESPM, N^1,N^12-bis(ethyl)spermine], the “growth inhibition (FIG. 5)” value [8] is given as “least growth inhibition”, the “growth inhibition (FIG. 5)” value [9] is given as “greatest growth inhibition” and the “concentration inhibiting cell growth” value [10] is given as 1 to 10 µM. The “cytotoxic response and SSAT induction” value [11] was “associated with a high induction of SSAT”.
